Values of other authors, collected in patent publication US5550128A, “Enantiomers of gamma methylene 10-deaza aminopterin and process for preparing the same” (priority 1994, dated 1996).

Columns and labels:
P388 leukemia = conditions: animals bearing P388 leukemia; cited from earlier work
L1210 leukemia = conditions: animals bearing L1210 leukemia; cited from earlier work
[1] = animals; relative to MTX; cited from earlier work

## C=C(CC(NC(=O)c1ccc(C(CC)Cc2cnc3nc(N)nc(N)c3n2)cc1)C(=O)O)C(=O)O (stereo not drawn) [MEDAM, γ-methylene-10-ethyl-10-deazaaminopterin]
P388 leukemia
  in vivo antitumor activity relative to MTX: superior in vivo antitumor activity relative to the polyglutamylatable MTX
L1210 leukemia
  in vivo antitumor activity relative to MTX: superior in vivo antitumor activity relative to the polyglutamylatable MTX
[1]
  tolerability: tolerated by animals at higher doses
